Measurements: patent publication US6620810B2, “4-thioxo-4,7-dihydro-thieno[2,3-b]pyridine-5-carboxamides as antiviral agents” (Pharmacia & Upjohn Company, priority 2001, dated 2003)
pIC50: −log10 of the molar value.

How the values were obtained:
Type in all cases: biochemical
VZV polymerase = VZV polymerase (Varicella-zoster virus, UniProt P09252); experiment: VZV polymerase assay (Table 1)
HCMV polymerase = biological target: T1, HCMV polymerase (Human cytomegalovirus, UniProt P08546); experiment: HCMV polymerase scintillation proximity assay (Test A, modified version); settings: modified SPA assay: compounds diluted in 100% DMSO, 4.5 mM DTT in polymerase buffer
T1 construct: made in house; host or cells: recombinant baculovirus-infected SF-9 cells
T1 sequence (P08546 whole entry): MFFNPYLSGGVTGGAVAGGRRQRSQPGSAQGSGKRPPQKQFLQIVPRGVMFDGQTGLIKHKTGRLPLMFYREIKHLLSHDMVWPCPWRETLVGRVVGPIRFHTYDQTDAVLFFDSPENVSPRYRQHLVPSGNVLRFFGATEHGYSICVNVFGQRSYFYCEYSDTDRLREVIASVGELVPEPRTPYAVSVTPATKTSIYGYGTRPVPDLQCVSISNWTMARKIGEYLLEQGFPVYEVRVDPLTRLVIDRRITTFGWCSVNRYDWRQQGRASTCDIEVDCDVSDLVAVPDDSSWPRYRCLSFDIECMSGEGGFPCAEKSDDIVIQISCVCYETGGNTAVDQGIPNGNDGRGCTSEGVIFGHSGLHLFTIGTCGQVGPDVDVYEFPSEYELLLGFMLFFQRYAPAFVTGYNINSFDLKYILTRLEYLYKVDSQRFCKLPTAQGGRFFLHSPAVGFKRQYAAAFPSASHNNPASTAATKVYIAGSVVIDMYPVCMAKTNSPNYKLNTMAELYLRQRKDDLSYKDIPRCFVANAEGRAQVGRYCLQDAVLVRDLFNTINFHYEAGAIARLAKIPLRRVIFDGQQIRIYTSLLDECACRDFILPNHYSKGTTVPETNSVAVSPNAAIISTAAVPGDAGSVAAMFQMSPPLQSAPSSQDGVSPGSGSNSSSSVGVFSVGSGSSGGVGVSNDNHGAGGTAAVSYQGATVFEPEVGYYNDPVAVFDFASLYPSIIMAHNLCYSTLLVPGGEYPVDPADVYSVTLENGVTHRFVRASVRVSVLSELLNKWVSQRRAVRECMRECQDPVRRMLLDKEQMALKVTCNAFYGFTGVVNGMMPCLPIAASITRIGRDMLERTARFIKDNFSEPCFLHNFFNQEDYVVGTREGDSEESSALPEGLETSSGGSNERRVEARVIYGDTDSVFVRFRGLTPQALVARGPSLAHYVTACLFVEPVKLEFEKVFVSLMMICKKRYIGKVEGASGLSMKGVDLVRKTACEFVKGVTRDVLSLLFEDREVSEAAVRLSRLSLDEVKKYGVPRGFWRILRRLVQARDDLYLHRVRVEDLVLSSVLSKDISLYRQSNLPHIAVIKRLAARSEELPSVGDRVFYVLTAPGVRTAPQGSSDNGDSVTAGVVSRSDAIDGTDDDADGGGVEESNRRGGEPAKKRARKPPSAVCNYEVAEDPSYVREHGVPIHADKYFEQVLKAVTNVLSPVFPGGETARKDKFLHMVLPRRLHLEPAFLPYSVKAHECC
Method: The HCMV polymerase assay is performed using a scintillation proximity assay (SPA) as described in several references, such as N. D. Cook, et al., Pharmaceutical Manufacturing International, pages 49-53 (1992); K. Takeuchi, Laboratory Practice, September issue (1992); U.S. Pat. No. 4,568,649 (1986); which are incorporated by reference herein. Reactions are performed in 96-well plates. The assay is conducted in 100 μl volume with 5.4 mM HEPES (pH 7.5), 11.7 mM KCl, 4.5 mM MgCl2, 0.36 mg/ml BSA, and 90 nM ^3H-dTTP. Assays are run with and without CHAPS, (3-[(3-cholamidopropyl)-dimethylammonio]-1-propane-sulfonate) at a final concentration of 2 mM. HCMV polymerase is diluted in enzyme dilution buffer containing 50% glycerol, 250 mM NaCl, 10 mM HEPES (pH 7.5), 100 μg/ml BSA, and 0.01% sodium azide. […] Plates are incubated 10 min. at 37° C., then equilibrated to room temperature, and counted on a Packard Topcount. Linear regressions are performed and IC50's are calculated using computer software.
A modified version of the above HCMV polymerase assay is performed as described above, but with the following changes: Compounds are diluted in 100% DMSO until final dilution into assay buffer. […] In Table 1, the term “nd” refers to activity data not determined.

HSV polymerase = HSV polymerase (Human herpesvirus 1, UniProt P04293); experiment: HSV polymerase assay (Table 1)
Chain of HSV polymerase (P04293 whole entry): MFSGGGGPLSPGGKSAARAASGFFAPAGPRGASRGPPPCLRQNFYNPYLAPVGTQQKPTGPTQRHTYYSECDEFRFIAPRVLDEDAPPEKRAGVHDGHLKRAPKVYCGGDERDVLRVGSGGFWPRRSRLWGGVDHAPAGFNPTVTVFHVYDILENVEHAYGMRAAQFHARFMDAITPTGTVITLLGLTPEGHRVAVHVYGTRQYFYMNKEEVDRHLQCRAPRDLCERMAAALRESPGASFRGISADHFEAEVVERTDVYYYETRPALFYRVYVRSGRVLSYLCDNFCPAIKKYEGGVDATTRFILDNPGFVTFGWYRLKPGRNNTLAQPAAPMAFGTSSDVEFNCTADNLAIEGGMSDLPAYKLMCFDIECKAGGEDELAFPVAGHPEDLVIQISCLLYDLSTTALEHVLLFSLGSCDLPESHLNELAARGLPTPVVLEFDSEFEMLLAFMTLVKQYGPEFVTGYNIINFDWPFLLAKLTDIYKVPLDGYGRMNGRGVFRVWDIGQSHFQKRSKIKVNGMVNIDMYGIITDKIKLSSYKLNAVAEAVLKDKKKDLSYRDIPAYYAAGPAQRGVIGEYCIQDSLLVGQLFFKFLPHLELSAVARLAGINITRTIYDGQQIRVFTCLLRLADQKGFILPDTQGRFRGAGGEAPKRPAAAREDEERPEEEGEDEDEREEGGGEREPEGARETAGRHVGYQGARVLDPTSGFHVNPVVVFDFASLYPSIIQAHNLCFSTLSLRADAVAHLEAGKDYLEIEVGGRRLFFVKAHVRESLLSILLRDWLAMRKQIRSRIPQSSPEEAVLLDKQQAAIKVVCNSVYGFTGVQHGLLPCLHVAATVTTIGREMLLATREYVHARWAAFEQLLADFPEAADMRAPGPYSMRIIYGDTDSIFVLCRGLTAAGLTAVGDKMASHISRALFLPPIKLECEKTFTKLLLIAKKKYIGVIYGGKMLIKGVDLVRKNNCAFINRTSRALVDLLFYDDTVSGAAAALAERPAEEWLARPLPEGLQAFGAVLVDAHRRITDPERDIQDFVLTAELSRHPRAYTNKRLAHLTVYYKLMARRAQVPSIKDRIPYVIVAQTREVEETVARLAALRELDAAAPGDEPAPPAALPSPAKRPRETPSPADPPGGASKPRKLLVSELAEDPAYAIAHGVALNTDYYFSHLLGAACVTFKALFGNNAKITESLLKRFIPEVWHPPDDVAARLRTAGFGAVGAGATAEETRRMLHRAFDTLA

Chain of VZV polymerase (P09252 whole entry): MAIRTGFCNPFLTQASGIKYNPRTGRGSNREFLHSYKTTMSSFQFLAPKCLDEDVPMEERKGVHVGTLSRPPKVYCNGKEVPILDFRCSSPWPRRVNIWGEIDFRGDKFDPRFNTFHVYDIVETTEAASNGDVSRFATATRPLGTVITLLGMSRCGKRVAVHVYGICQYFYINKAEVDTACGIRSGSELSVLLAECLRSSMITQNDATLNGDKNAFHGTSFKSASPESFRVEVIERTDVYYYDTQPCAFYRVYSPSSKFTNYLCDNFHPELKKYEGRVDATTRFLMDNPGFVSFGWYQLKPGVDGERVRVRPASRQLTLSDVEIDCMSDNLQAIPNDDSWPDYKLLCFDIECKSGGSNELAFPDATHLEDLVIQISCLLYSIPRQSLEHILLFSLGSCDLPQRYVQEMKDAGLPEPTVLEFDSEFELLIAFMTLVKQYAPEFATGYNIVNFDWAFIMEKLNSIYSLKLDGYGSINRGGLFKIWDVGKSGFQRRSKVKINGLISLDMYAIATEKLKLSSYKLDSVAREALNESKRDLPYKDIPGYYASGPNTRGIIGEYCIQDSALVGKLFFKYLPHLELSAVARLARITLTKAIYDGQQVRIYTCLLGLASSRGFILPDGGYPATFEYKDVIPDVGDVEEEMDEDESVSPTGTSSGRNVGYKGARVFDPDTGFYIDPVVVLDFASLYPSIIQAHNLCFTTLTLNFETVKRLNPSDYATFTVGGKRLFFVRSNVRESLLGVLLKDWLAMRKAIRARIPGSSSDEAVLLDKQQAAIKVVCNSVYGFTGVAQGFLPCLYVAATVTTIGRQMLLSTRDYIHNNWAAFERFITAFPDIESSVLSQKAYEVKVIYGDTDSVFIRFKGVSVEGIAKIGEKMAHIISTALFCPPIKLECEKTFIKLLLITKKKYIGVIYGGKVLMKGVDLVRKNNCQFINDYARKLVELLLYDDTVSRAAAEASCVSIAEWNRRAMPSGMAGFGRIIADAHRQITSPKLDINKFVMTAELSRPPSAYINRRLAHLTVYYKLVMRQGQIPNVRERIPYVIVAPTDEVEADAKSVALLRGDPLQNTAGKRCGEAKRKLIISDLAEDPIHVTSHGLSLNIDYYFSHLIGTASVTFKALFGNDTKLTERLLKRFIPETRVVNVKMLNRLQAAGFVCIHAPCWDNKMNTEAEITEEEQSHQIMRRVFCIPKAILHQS

- pIC50 (VZV polymerase): 7.10
- pIC50 (HCMV polymerase): 6.20
- pIC50 (HSV polymerase): 6.80
Compound: Cn1cc(C(=O)NCc2ccc(Cl)cc2)c(=S)c2cc(CN3CCOCC3)sc21 [Example 1, N-(4-chlorobenzyl)-7-methyl-2-(4-morpholinylmethyl)-4-thioxo-4,7-dihydrothieno[2,3-b]pyridine-5-carboxamide]
